Measured values published in ChEMBL document CHEMBL3822379, “Development of novel 1,4-benzodiazepine-based Michael acceptors as antitrypanosomal agents” (Bioorg Med Chem Lett, 2016).

Columns and labels:
[1] = tested on: Trypanosoma brucei brucei; assay: Antitrypanosomal activity against trypomastigote form of Trypanosoma brucei brucei TC 221 after 24 hrs by alamar blue assay; format: functional, organism-based; conditions: TC 221, 24 h
[2] = molecular target: Rhodesain (Trypanosoma brucei rhodesiense) (UniProt Q95PM0); assay: Inhibition of Trypanosoma brucei rhodesiense rhodesain expressed in Pichia pastoris X33 at 100 uM using Cbz-Phe-Arg-AMC as substrate measured over 10 mins by fluorescence microplate reader analysis
Chain of Rhodesain (Trypanosoma brucei rhodesiense) (Q95PM0 1-450): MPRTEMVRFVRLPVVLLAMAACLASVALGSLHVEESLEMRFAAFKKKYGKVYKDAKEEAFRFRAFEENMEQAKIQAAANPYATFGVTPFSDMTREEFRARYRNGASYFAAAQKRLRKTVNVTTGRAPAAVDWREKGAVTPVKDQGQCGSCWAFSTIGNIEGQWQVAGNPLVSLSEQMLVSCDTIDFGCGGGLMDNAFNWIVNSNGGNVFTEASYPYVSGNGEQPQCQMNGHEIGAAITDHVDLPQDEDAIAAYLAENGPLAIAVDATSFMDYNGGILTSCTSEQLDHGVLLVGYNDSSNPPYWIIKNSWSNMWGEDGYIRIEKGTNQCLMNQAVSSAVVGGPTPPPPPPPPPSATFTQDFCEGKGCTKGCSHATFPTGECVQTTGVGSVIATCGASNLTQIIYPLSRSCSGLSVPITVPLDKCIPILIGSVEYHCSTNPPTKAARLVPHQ

[3] = Cytotoxicity against mouse J774.1 cells incubated for 24 hrs by alamar blue assay; format: cell-based; conditions: read-out: TC50

Row | Structure (SMILES) | IC50 [1] [µM] | inhibition [2] [%] | CC50 at 24 h [3] [µM]
1 | COC(=O)/C=C/CCCN1C(=O)CN=C(c2ccccc2)c2ccccc21 | 23.5 | 27 | –
2 | N#C/C=C\CCCN1C(=O)CN=C(c2ccccc2)c2ccccc21 | > 40 | 27 | –
3 | CC(=O)/C=C/CCN1C(=O)CN=C(c2ccccc2)c2ccccc21 | 5.3 | 27 | > 100
4 | COC(=O)/C=C\CCN1C(=O)CN=C(c2ccccc2)c2ccccc21 | > 40 | 27 | –
5 | N#C/C=C\CCN1C(=O)CN=C(c2ccccc2)c2ccccc21 | > 40 | 27 | –
6 | N#C/C=C\CCCCN1C(=O)CN=C(c2ccccc2)c2ccccc21 | 14.5 | 27 | –
7 | CC(=O)/C=C/CCCCN1C(=O)CN=C(c2ccccc2)c2ccccc21 | 13.1 | 27 | –
8 | CC(=O)/C=C/CCCN1C(=O)CN=C(c2ccccc2)c2ccccc21 | 4.6 | 27 | 31.8
9 | COC(=O)/C=C/CCCCN1C(=O)CN=C(c2ccccc2)c2ccccc21 | 15.9 | 27 | –
10 | COC(=O)/C=C/CNC(=O)CN1C(=O)[C@@H](COC(=O)NC23CC4CC(CC(C4)C2)C3)N=C(c2ccccc2)c2ccccc21 | 4.8 | – | –
